Structures are written as SMILES.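 All cell lines were grown in 96-well plates and treated with compound for 48 hours. The concentration for 50% growth inhibition is given as GI50. At the TGI there is no net growth.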

What all share (assay): DTP human tumour cell line panel, 48 h
In experiment [1] the test system is MALME-3M melanoma.
Experiment [2] has as its system SF-539 CNS.
Experiment [3] deals with NCI-H23 lung.
Experiment [4] deals with T-47D breast.
Experiment [5] has as its system OVCAR-4 ovarian.
Experiment [6] concerns K-562 leukemia.
Experiment [7] relates to SN12C renal.
The subject of experiment [8] is SNB-75 CNS.
The subject of experiment [9] is EKVX NSCLC.
Experiment [10] relates to KM12 colon.

The TGI is the concentration at which net growth stops. A higher TGI goes with less potent growth arrest. Take `COc1cc(OC(=O)c2ccccc2)cc2c1C(=O)C=CC2=O`: the TGI in [1] was 27 µM; in [2] it was 41.7 µM; in experiment [3], 33.3 µM; in [4], 4.73 µM; in experiment [5] it was 12.3 µM; in [6] it was 5.36 µM. The TGI in [7] amounted to 45 µM; in experiment [8], 49.2 µM; in experiment [9], 30.2 µM; in [10] it was 38.8 µM.
The GI50 is the concentration giving 50% growth inhibition. For the compound `FC(F)(F)c1ccc(Nc2nc(-c3c(C(F)(F)F)nc4ccccn34)cs2)cc1`, the GI50 was 0.064 µM in experiment [1]; 0.0383 µM in [2]; 0.0579 µM in experiment [3]; 0.0453 µM in experiment [4]; 1220 nM in experiment [5]; 39.6 nM in [6]. Besides, the GI50 in experiment [7] is 297 nM; in [8] it was 29.1 nM; in experiment [9], 0.158 µM; in experiment [10] it was 39.3 nM. The TGI came to 4.63 µM in experiment [1]; 0.276 µM in experiment [2]; 5.51 µM in experiment [3]; 9.07 µM in experiment [4]; 15.6 µM in [5]; 8.18 µM in experiment [6]. In addition, the TGI in [7] worked out at 8.28 µM; in [8] it was 1.05 µM; in [9], 7.84 µM; in [10], 4.23 µM.
Take `COc1ccc2nc3cccc([N+](=O)[O-])c3c(NCCCCCC(=O)O)c2c1`: the GI50 is 0.0437 µM in experiment [1]; 0.404 µM in experiment [2]; 0.952 µM in [3]; 0.856 µM in [4]; 393 nM in [5]; 10.9 nM in experiment [6]. Besides, the GI50 was 131 nM in experiment [7], 282 nM in experiment [8], 0.297 µM in experiment [9] and 26.2 nM in [10]. Besides, the TGI is 0.194 µM in experiment [1]; 1.44 µM in experiment [2]; 4.19 µM in experiment [3]; 12 µM in experiment [4]; 1.72 µM in experiment [5]; 0.0251 µM in [6]. In addition, the TGI in experiment [7] came out at 1.16 µM; in experiment [8] it was 1.57 µM; in experiment [9] it was 1.97 µM; in experiment [10], 0.22 µM.
Take `Cc1nn2c(/C=C3\C(=O)Nc4ccc(Cl)cc43)c(C)nc2s1`: the GI50 in [1] is more than 100 µM; in [2], 45 µM; in experiment [3] it was 77.1 µM; in [4], 42.8 µM; in [5] it was 83000 nM; in experiment [6], 5430 nM. In addition, the GI50 in experiment [7] is more than 100000 nM; in experiment [8] it was 16000 nM; in experiment [9], 92 µM; in experiment [10], 6840 nM. Further, the total growth inhibition concentration (TGI) in experiment [1], in experiment [2], in [3], in experiment [4], in experiment [5] and in experiment [6] was more than 100 µM throughout. Moreover, the total growth inhibition concentration (TGI) in experiment [7] is more than 100 µM; in [8], 92.2 µM; in [9] it was more than 100 µM; in [10], more than 100 µM.
Take `C=C1CCC2C3(C)COC(c4ccc(N(C)C)cc4)OC3CCC2(C)C1C/C=C1/C(=O)OCC1O` (stereo not given): the GI50 in experiment [1] was 7.83 µM; in experiment [2], 8.07 µM; in experiment [3], 4.37 µM; in experiment [4] it was 6.91 µM; in experiment [5], 2500 nM; in experiment [6], 1220 nM. Also, the GI50 in experiment [7] is 2520 nM; in experiment [8], 1940 nM; in experiment [9], 6.43 µM; in experiment [10] it was 2620 nM. For the same compound, the TGI in experiment [1] is 22.2 µM; in [2], 20.5 µM; in experiment [3], 15.7 µM; in [4] it was 26.3 µM; in experiment [5], 8.98 µM; in experiment [6] it was 3.37 µM. For the same compound, the concentration for total growth inhibition (TGI) in experiment [7] was determined as 7.98 µM; in [8], 7.97 µM; in experiment [9] it was 21.9 µM; in experiment [10] it was 7.58 µM.
In the case of `O=[N+]([O-])O.[Cu+2].[NH-]CC[NH-].[NH-]CC[NH-]`, the GI50 in experiment [1] was more than 10 µM; in [2], more than 10 µM; in [3], more than 10 µM; in experiment [4] it was more than 10 µM; in experiment [5] it was more than 10000 nM; in [6], more than 10000 nM. Further, the GI50 in experiment [7] was more than 10000 nM; in [8], more than 10000 nM; in experiment [9], more than 10 µM; in [10], more than 10000 nM. Further, the TGI in experiment [1], in experiment [2], in experiment [3], in experiment [4], in experiment [5] and in experiment [6] was more than 10 µM throughout. Also, the TGI in experiment [7], in experiment [8], in experiment [9] and in [10] was more than 10 µM throughout.
For the compound `CCC1C2Cc3ccc(O)cc3C1(CC)CCN2C` (stereo not given), the TGI in experiment [1], in [2], in experiment [3], in experiment [4], in experiment [5] and in [6] was more than 100 µM throughout. Besides, the TGI in experiment [7], in [8], in [9] and in experiment [10] was more than 100 µM throughout.

The values are drawn from PubChem BioAssay (NCI).
